Experimental data taken from patent US5439812A, “Antibodies catalyzing deamidation of proteins” (The Pennsylvania Research Corporation, priority 1992, dated 1995).
Where a name gives a salt, the structure may show the parent alone. Square brackets hold non-standard residues; d marks the D form. Peptide text beside a SMILES is read from it. * marks the point of attachment. ξ: configuration not given here. NHPhenethyl = c1ccc(CCN*)cc1; ξN = NC(=O)CC(N)C(=O)O

Columns and labels:
[1] = system: monoclonal catalytic antibody 2E4 raised to the RG2 hapten-KLH conjugate; assay: deamidation of the Asn-Gly substrate catalysed by antibody 2E4 (glutamate dehydrogenase coupled ammonia assay); assay type: biochemical, mouse
Text: (§1) The resulting hybridomas are subjected to a preliminary screening for binding to the hapten using standard methods specifically as described in U.S. Pat. No. 5,079,152 to Benkovic et al, noted above. […] This assay is chosen to specifically screen for those antibodies which catalyze the deamidation reaction and assays by the determination of ammonia. The procedure is a modification of known procedures which use glutamate dehydrogenase to detect ammonia. (See Foncesca-Wollheim, F. Clin. Chem., […], 1483-1487 (1990), and von Anken, H. D., Schiphorst, M. E., Clinica Chimica Acta, 56, 151-157 (1974)).
The deamidation to the cyclic imide intermediate is assayed by a spectrophotometric procedure coupling the antibody-catalyzed reaction to the enzyme glutamate dehydrogenase. Glutamate dehydrogenase utilizes the ammonia produced from the antibody-catalyzed deamidation reaction to convert alpha-ketoglutarate into glutamic acid, oxidizing nicotimamide dinucleotide phosphate in the process (NADPH is oxidized to NADP). The glutamate dehydrogenase reaction is monitored spectrophotometrically.
Thirty antibodies are picked for assay for catalytic activity. The antibodies are delivered in phosphate buffered saline solutions. These are then dialyzed into bicine buffer (pH 9.0, 0.10M) and 100 uL of the dialyzed solution was then added to a solution of bicine (166 uL, pH 9.0, 0.10M). To this is added 16.5 uL of a solution containing 400 uM NADPH, α-ketoglutarate, and adenosine diphosphate. This is mixed thoroughly and then 16.5 uL of analytical grade glutamate dehydrogenase (Boehringer Mannheim) is added and the solution is again mixed thoroughly. The reaction is initiated by addition of the substrate which is stored in a DMSO solution such that the total concentration of DMSO was 5%.
The solution is then transfered to a small cuvette and the decrease in absorbance at 340 nanometers is followed over a period of several hours. Control reactions are performed under identical conditions without the addition of antibody to the reaction mixture (bicine buffer was added in place of the antibody to maintain volume). The antibody catalyzed rate is determined by subtracting the overall rate (antibody-catalyzed and spontaneous rates) from the spontaneous rate determined from the control reaction.
This is not a Vmx since the substrate was not at total saturation of the antibody. The actual rate enhancement is probably greater. […]

[2] = system: monoclonal catalytic antibody 24C3 raised to the RG2 hapten-KLH conjugate; assay: deamidation of the Asn-Gly substrate catalysed by antibody 24C3 (glutamate dehydrogenase coupled ammonia assay); assay type: biochemical, mouse
Text: as §1
The deamidation to the cyclic imide intermediate is assayed by a spectrophotometric procedure coupling the antibody-catalyzed reaction to the enzyme glutamate dehydrogenase. […] The glutamate dehydrogenase reaction is monitored spectrophotometrically. […]
The solution is then transfered to a small cuvette and the decrease in absorbance at 340 nanometers is followed over a period of several hours. […] The antibody catalyzed rate is determined by subtracting the overall rate (antibody-catalyzed and spontaneous rates) from the spontaneous rate determined from the control reaction. […]

Structure (SMILES)	inhibition of antibody-catalysed deamidation by hapten [1]	inhibition of antibody-catalysed deamidation by hapten [2]	kcat ([1]; 2E4 investigated in more detail)	Km ([1]; 2E4 investigated in more detail, read-out: binding affinity for the substrate (Km)) [µM]	kcat ([1]; 25° C., bicine pH 9.0, substrate 451 uM, antibody 27.4 uM, not a Vmax, substrate not at total saturation) [h⁻¹]	kcat ([2]; not a true Vmax)
O=C(O)CCCC(=O)NC1CP(=O)(O)C(CC(=O)NCCc2ccccc2)C1O (stereo not drawn) [phospholane hapten, N-(Z-Phenylethyl)-[1'-hydroxyphosphol-3'-hydroxy-4'-(5-hydroxy-5-oxo-pentanoyl)amino-1'-oxo-2'-yl]acetamide disodium salt]	stoichiometrically inhibited	inhibition of this reaction with hapten				
CC(=O)NC(CC(N)=O)C(=O)NCC(=O)NCCc1ccccc1 (stereo not drawn) [substrate, phenyl ethyl derivative of the asparaginyl-glycyl dipeptide] (Ac-[ξN]-Gly-NHPhenethyl)			1.5±0.3×10^-4 s^-1	220 ± 10	0.416	0.352
